This is an account of results in patent US20070254930A1, “Oral Preparation Having Improved Bioavailability” (DONG WHA PHARM. IND. CO., LTD., priority 2004, published 2007).

Data set [1] is described as follows: Gelation experiment: viscosity of aqueous solutions. The class given is physicochemical. Particulars: for Viscosity: Brookfield DV-II+, 10° C. ± 0.3° C., spindle S 51. As to the method:
The following test was carried out to evaluate the degree of gelation depending on the concentration of 2 methanesulfonic acid salt of the compound of Chemical Formula 1 according to the present invention.
200 mg of 2 methanesulfonic acid salt of the compound of Chemical Formula 1 was dissolved in 10 mL of water (20 mg/mL). The solution was diluted with water to give 20, 10, 5, and 2.5 mg/mL. Viscosity of these diluted solutions was measured according to the following test conditions described in Table 1, and also the results for the test are shown in Table 1.

Data set [2] is described as follows: pH-dependent water solubility. The class given is physicochemical. Particulars: pH about pH 5 or more.

In the case of `CS(=O)(=O)O.CS(=O)(=O)O.Cc1nc(-c2ccc(OCCCCCOc3ccc(C(=N)NO)cc3)cc2)c(C(C)C)s1` [N-hydroxy-4-{5-[4-(5-isopropyl-2-methyl-1,3-thiazol-4-yl)phenoxy]pentoxy}-benzamidine 2 methanesulfonic acid salt], the Viscosity was 6.34 cP in data set [1] (2.5 mg/ml in water), 11.9 cP in data set [1] (5 mg/ml in water), 20.0 cP in data set [1] (10 mg/ml in water) and 78.9 cP in data set [1] (20 mg/ml in water). For the same molecule, the “gelation property in aqueous solution (in words)” value in data set [1] (aqueous solution) is given as “high gelation property”.

As to `Cc1nc(-c2ccc(OCCCCCOc3ccc(C(=N)NO)cc3)cc2)c(C(C)C)s1` [compound of Chemical Formula 1, N-hydroxy-4-{5-[4-(5-isopropyl-2-methyl-1,3-thiazol-4-yl)phenoxy]pentoxy}-benzamidine], the “solubility in aqueous condition (in words)” value in data set [2] was “practically insoluble”.
